Results published in PMC4737481 (Bioorganic & medicinal chemistry letters, 2015).
Entries after “also recorded” stand apart in the source; their conditions may differ. Read-outs that look alike come from different tables or passages of the source. Each block holds one molecule with its values, some of them ahead of it.

How the values were obtained:
[1] = ref not given, cited from earlier work
[2] = tested on: P-glycoprotein; conditions: ref not given; cited from earlier work
[3] = tested on: Chagas' disease; conditions: dog, oral 50 mg/kg BID for 14 days; cited from earlier work
[4] = molecular target: T1, CYP3A4 (Homo sapiens, UniProt P08684); conditions: background statement on 1; cited from earlier work
[5] = stability to cultured liver microsomes; assay type: in vitro ADME; conditions: in words
[6] = molecular target: T1, CYP3A4; experiment: inhibition of CYP3A4 in vitro; assay type: in vitro ADME
[7] = tested on: MDCK cell monolayers; experiment: permeability in MDCK cell monolayers; assay type: in vitro ADME; conditions: in words
[8] = tested on: T cruzi; conditions: T cruzi infected mice, 20 mg/kg BID (ip) for 27 days; cited from earlier work
[9] = tested on: T. cruzi parasites; conditions: cited from earlier work
[10] = in vivo PK studies in mice; conditions: PO 40 mg/kg
[11] = tested on: intracellular T. cruzi in C2C12 host cells; experiment: antitrypanosomal high-content imaging assay; assay type: cell-based

T1 sequence (P08684 whole entry): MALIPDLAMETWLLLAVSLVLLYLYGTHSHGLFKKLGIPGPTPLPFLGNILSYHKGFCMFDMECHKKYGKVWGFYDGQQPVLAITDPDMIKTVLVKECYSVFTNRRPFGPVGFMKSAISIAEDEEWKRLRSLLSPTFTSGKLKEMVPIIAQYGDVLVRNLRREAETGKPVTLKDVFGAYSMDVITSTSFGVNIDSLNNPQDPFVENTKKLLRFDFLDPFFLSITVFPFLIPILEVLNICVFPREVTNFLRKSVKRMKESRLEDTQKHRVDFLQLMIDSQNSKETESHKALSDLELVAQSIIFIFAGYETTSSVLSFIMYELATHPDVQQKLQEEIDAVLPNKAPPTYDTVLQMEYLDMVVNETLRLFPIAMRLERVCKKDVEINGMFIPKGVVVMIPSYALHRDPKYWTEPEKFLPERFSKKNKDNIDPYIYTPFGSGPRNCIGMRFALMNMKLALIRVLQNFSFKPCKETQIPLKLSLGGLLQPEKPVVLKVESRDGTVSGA

Structure (SMILES): CN1CCN(C(=O)N[C@@H](Cc2ccccc2)C(=O)N[C@H](/C=C/S(=O)(=O)c2ccccc2)CCc2ccccc2)CC1 [Compound 1, K777]
- dose-exposure pharmacokinetics [1]: nonlinear dose-exposure pharmacokinetics
- oral bioavailability ([1]; species not stated): 5–20%
- P-glycoprotein substrate [2]: substrate for P-glycoprotein
- cardiac tissue damage [3]: partially protected animals from cardiac tissue damage
- parasitemia [3]: reduced parasitemia below levels detectable by hemocytometry
- CYP3A4 inhibition (in words) [4]: irreversibly inhibits CYP3A4; also recorded: low μM regime

Structure (SMILES): CCCCC(C(=O)COc1c(F)c(F)cc(F)c1F)n1cc([C@@](C)(NCc2ccc3ncccc3c2)C(C)C)nn1 (stereo partly drawn) [Compound 4]
- stability to cultured liver microsomes [5]: reasonable stability
- CYP3A4 inhibition (in words) [6]: low μM regime
- Permeability in an MDCK cell monolayer assay [7]: modest-to-low
- hematological cure (treated animals) [8]: 2/4
- activity against T. cruzi parasites in two different cell-based assays [9]: effective

- Exposure following PO dosing relative to compound 4 [10]: two-fold higher
Structure (SMILES): CCCCC(C(=O)COc1c(F)c(F)cc(F)c1F)n1cc([C@@](C)(NCc2ccc3ncccc3c2)C2CCCC2)nn1 (stereo partly drawn) [Compound 8]

Structure (SMILES): CCCCC(C(=O)COc1c(F)c(F)cc(F)c1F)n1cc([C@@](C)(NCc2ccn3nccc3n2)C(C)C)nn1 (stereo partly drawn) [Compound 20]
- IC50 ([11]; Trypanosoma cruzi, C2C12, read-out: T. cruzi IC50): 10 nM

- Exposure following PO dosing relative to compound 4 [10]: two-fold higher
Structure (SMILES): CCCCC(C(=O)COc1c(F)c(F)cc(F)c1F)n1cc([C@@](C)(NCc2ccn3nccc3n2)C2CCCC2)nn1 (stereo partly drawn) [Compound 21]
- improvement of in vitro potency relative to 4 ([11]; assay not specified): ~ 10 fold
